Molecular target: T1, Murine PKD1 kinase domain (Mus musculus, UniProt Q62101)
T1 construct: hexahistidine (pFastBac HTb leader) (N); made in house; host or cells: Sf9 insect cells, baculovirus (Bac-to-Bac HT, pFastBac HTb)
T1 sequence (Q62101 with tags, fused parts or gaps R683W): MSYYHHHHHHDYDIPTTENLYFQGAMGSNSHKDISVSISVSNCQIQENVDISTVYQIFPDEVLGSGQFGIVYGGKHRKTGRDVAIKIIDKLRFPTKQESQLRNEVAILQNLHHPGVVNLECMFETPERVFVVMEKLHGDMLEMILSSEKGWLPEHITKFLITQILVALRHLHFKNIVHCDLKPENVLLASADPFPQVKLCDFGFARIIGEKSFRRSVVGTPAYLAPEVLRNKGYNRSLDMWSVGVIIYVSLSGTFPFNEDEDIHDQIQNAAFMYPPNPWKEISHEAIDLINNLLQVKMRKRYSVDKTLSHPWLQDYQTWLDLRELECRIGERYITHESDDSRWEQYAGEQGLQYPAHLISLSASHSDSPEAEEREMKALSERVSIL
Test: PKD1 (Murine Kinase Domain) Enzyme Activity Assay (IMAP fluorescence polarisation)
Assay type: biochemical
Conditions: 10 μM ATP, 60 minutes, room temperature
Description: The DNA sequence corresponding to murine PKD1 (see FIG. 1) was inserted into pFastBAc Htb (Invitrogen, USA) at BamH1 and EcoR1 sites using standard molecular biology techniques.
The PKD1 described above was expressed as a hexahistidine tagged protein construct using a commercially available baculoviral expression system that induces protein production in insect cell culture (Bac-to-Bac® HT Baculovirus Expression System, Invitrogen). Protein was typically expressed by inoculating 1 L of sf9 cells with a genetically modified baculovirus containing the gene for the kinase domain of PKD1. Sf9 cells were obtained from ICR Ltd.
Purification of PKD1 was achieved by standard chromatographic procedures. Capture from crude centrifuged lysed cell supernatant was achieved using metal affinity chromatography (GE Healthcare Life Sciences, HiTrap Chelating chromatography column), and fractions showing PKD1 (as assessed by gel electrophoresis and western blot) were further purified by a single polish purification step performed using a mono Q anion exchange chromatography system (GE Healthcare Life Sciences, HiTrap HP Q column). […] This protocol describes the method for screening compounds as inhibitors of Protein Kinase D activity in a 384 well microplate format fluorescence polarisation IMAP assay performed using the Biomek FX.
Kinase Enzyme: Murine PKD1 kinase domain at ˜100 μg/mL, was purified from baculovirus (as described above), obtained from aliquots stored at −70° C. PKD was prepared with a final concentration of 0.1 μg/mL by diluting 1:300 in Reaction Buffer (30 μL per 9 mL-5 mL per plate with an additional 4 mL dead volume) and vortexing prior to use. It was necessary to check this concentration regularly in case of enzyme degradation.
(also known as MAPKAP K2 substrate) was obtained from Molecular Devices (Product code R7127). It was used at 300 nM by diluting 20 μM stock 1:66 in Kinase/Reaction Buffer (135 μL per 9 mL; 75 μL per 5 mL Reaction Buffer for blank wells requiring <1 mL per place with an additional 4 mL dead volume).
A 1 mM ATP stock in Reaction Buffer was prepared from a 10 mM stock in 20 mM NaOH and stored as aliquots at −70° C. It was used at 40 μM by diluting 1 mM stock 1:25 in Reaction Buffer (240 μL per 6 mL-2 mL per plate with an additional 4 mL dead volume) and vortexing prior to use.
IMAP Reagents: IMAP Binding Reagent (product code R7207) and Binding Buffer (product code R7208) were obtained from Molecular Devices and stored at +4° C. The beads were gently re-suspended before diluting by 1:400 in buffer (Binding Buffer is supplied as a 5× stock and so was diluted with water prior to use) and then vortexing before addition to wells. 16 mL water with 4 mL Binding Buffer and 50 μL Binding Reagent were used per plate (17 mL per plate with an additional 3 mL dead volume).
13 μL Substrate in Reaction Buffer was added to ‘blank’ wells to give 200 nM reaction concentration. […] 2 μL 10% DMSO/water was added to ‘blank’ and ‘control’ wells. 5 μL ATP in Reaction Buffer was added to all wells to give 10 μM reaction concentration. The reaction mixture was then incubated at room temperature for 60 minutes. The incubation period was followed by the addition of 40 μL IMAP Binding Reagent in Binding Buffer to all wells. The reaction was then further incubated at room temperature for […].
Percentage inhibition was calculated based on activity of the test sample minus the average values in the blank wells relative to the average values measured in control wells minus the average values in the blank wells.
IC50 values were calculated from 10 point dose sigmoid ‘dose-response’ curves using Xlfit software (IDBS inc, USA). Data were fitted to a 4 parameter logistic model/sigmoidal dose response:
where: A=fit minimum (locked to 0); B=fit maximum (locked to 100); C=fit midpoint (pre-fit to 1); D=slope at linear portion of curve, hillslope (pre-fit to 0.1)

IC50 | SMILES
< 1000 nM | CN(C)CCNC(=O)c1cccc(-c2cnc(N)c(-c3cc4ccccc4s3)c2)c1 [Y-011, 3-(6-Amino-5-benzo[b]thiophen-2-yl-pyridin-3-yl)-N-(2-dimethylamino-ethyl)-benzamide]
< 1000 nM | CN(C)CCNC(=O)c1cccc(-c2cnc(N)c(-c3cc4ccccc4o3)c2)c1 [Y-012, 3-(6-Amino-5-benzofuran-2-yl-pyridin-3-yl)-N-(2-dimethylamino-ethyl)-benzamide]
< 1000 nM | CN(C)CCNC(=O)c1cccc(-c2cnc(N)c(-c3cccc(-c4ccccc4)c3)c2)c1 [Y-013, 3-(6-Amino-5-biphenyl-3-yl-pyridin-3-yl)-N-(2-dimethylamino-ethyl)-benzamide]
< 1000 nM | CN(C)CCNC(=O)c1cccc(-c2cnc(N)c(-c3ccc(-c4ccccc4)cc3)c2)c1 [Y-014, 3-(6-Amino-5-biphenyl-4-yl-pyridin-3-yl)-N-(2-dimethylamino-ethyl)-benzamide]
< 1000 nM | CN(C)CCNC(=O)c1cccc(-c2cnc(N)c(-c3cccc4c3sc3ccccc34)c2)c1 [Y-015, 3-(6-Amino-5-dibenzothiophen-4-yl-pyridin-3-yl)-N-(2-dimethylamino-ethyl)-benzamide]
< 1000 nM | NC(=O)c1cccc(-c2cnc(N)c(-c3ccoc3)c2)c1 [Y-016, 3-(6-Amino-5-furan-3-yl-pyridin-3-yl)-benzamide]
< 1000 nM | CN(C)CCNC(=O)c1cccc(-c2cnc(N)c(-c3ccoc3)c2)c1 [Y-017, 3-(6-Amino-5-furan-3-yl-pyridin-3-yl)-N-(2-dimethylamino-ethyl)-benzamide]
1000 to 10000 nM | CN(C)CCNC(=O)c1cccc(-c2cnc(N)c(-c3cccc4cnccc34)c2)c1 [Y-018, 3-(6-Amino-5-isoquinolin-5-yl-pyridin-3-yl)-N-(2-dimethylamino-ethyl)-benzamide]
< 1000 nM | CN(C)CCNC(=O)c1cccc(-c2cnc(N)c(-c3cccc4ccccc34)c2)c1 [Y-019, 3-(6-Amino-5-naphthalen-1-yl-pyridin-3-yl)-N-(2-dimethylamino-ethyl)-benzamide]
< 1000 nM | CN(C)CCNC(=O)c1cccc(-c2cnc(N)c(-c3ccc4ccccc4c3)c2)c1 [Y-020, 3-(6-Amino-5-naphthalen-2-yl-pyridin-3-yl)-N-(2-dimethylamino-ethyl)-benzamide]
1000 to 10000 nM | NC(=O)c1cccc(-c2cnc(N)c(-c3cccc4ncccc34)c2)c1 [Y-021, 3-(6-Amino-5-quinolin-5-yl-pyridin-3-yl)-benzamide]
< 1000 nM | CN(C)CCNC(=O)c1cccc(-c2cnc(N)c(-c3cccc4ncccc34)c2)c1 [Y-022, 3-(6-Amino-5-quinolin-5-yl-pyridin-3-yl)-N-(2-dimethylamino-ethyl)-benzamide]
< 1000 nM | CN(C)CCNC(=O)c1cccc(-c2cnc(N)c(-c3cccc4cccnc34)c2)c1 [Y-023, 3-(6-Amino-5-quinolin-8-yl-pyridin-3-yl)-N-(2-dimethylamino-ethyl)-benzamide]
< 1000 nM | CN(C)CCNC(=O)c1cccc(-c2cnc(N)c(-c3cccs3)c2)c1 [Y-024, 3-(6-Amino-5-thiophen-2-yl-pyridin-3-yl)-N-(2-dimethylamino-ethyl)-benzamide]
< 1000 nM | NC(=O)c1cccc(-c2cnc(N)c(-c3ccc4[nH]ccc4c3)c2)c1 [Y-025, 3-[6-Amino-5-(1H-indol-5-yl)-pyridin-3-yl]-benzamide]
< 1000 nM | CN(C)CCNC(=O)c1cccc(-c2cnc(N)c(-c3ccc4[nH]ccc4c3)c2)c1 [Y-026, 3-[6-Amino-5-(1H-indol-5-yl)-pyridin-3-yl]-N-(2-dimethylamino-ethyl)-benzamide]
< 1000 nM | CN(C)CCNC(=O)c1cccc(-c2cnc(N)c(-c3ccc4c(ccn4C)c3)c2)c1 [Y-027, 3-[6-Amino-5-(1-methyl-1H-indol-5-yl)-pyridin-3-yl]-N-(2-dimethylamino-ethyl)-benzamide]
< 1000 nM | CN(C)CCNC(=O)c1cccc(-c2cnc(N)c(-c3ccc4c(c3)CCO4)c2)c1 [Y-028, 3-[6-Amino-5-(2,3-dihydro-benzofuran-5-yl)-pyridin-3-yl]-N-(2-dimethylamino-ethyl)-benzamide]
< 1000 nM | COc1ncc(-c2cc(-c3cccc(C(=O)NCCN(C)C)c3)cnc2N)c(OC)n1 [Y-029, 3-[6-Amino-5-(2,4-dimethoxy-pyrimidin-5-yl)-pyridin-3-yl]-N-(2-dimethylamino-ethyl)-benzamide]
1000 to 10000 nM | CN(C)CCNC(=O)c1cccc(-c2cnc(N)c(-c3ccccc3OCc3ccccc3)c2)c1 [Y-030, 3-[6-Amino-5-(2-benzyloxy-phenyl)-pyridin-3-yl]-N-(2-dimethylamino-ethyl)-benzamide]
< 1000 nM | CN(C)CCNC(=O)c1cccc(-c2cnc(N)c(-c3ccc(-c4ccccc4)c(F)c3)c2)c1 [Y-031, 3-[6-Amino-5-(2-fluoro-biphenyl-4-yl)-pyridin-3-yl]-N-(2-dimethylamino-ethyl)-benzamide]
< 1000 nM | CN(C)CCNC(=O)c1cccc(-c2cnc(N)c(-c3ccc(F)c(F)c3)c2)c1 [Y-033, 3-[6-Amino-5-(3,4-difluoro-phenyl)-pyridin-3-yl]-N-(2-dimethylamino-ethyl)-benzamide]
1000 to 10000 nM | COc1ccc(-c2cc(-c3cccc(C(N)=O)c3)cnc2N)cc1OC [Y-034, 3-[6-Amino-5-(3,4-dimethoxy-phenyl)-pyridin-3-yl]-benzamide]
< 1000 nM | COc1ccc(-c2cc(-c3cccc(C(=O)NCCN(C)C)c3)cnc2N)cc1OC [Y-035, 3-[6-Amino-5-(3,4-dimethoxy-phenyl)-pyridin-3-yl]-N-(2-dimethylamino-ethyl)-benzamide]
< 1000 nM | Cc1ccc(-c2cc(-c3cccc(C(=O)NCCN(C)C)c3)cnc2N)cc1C [Y-036, 3-[6-Amino-5-(3,4-dimethyl-phenyl)-pyridin-3-yl]-N-(2-dimethylamino-ethyl)-benzamide]
< 1000 nM | CN(C)CCNC(=O)c1cccc(-c2cnc(N)c(-c3cc(Cl)cc(Cl)c3)c2)c1 [Y-037, 3-[6-Amino-5-(3,5-dichloro-phenyl)-pyridin-3-yl]-N-(2-dimethylamino-ethyl)-benzamide]
< 1000 nM | CN(C)CCNC(=O)c1cccc(-c2cnc(N)c(-c3cccc(OCc4ccccc4)c3)c2)c1 [Y-038, 3-[6-Amino-5-(3-benzyloxy-phenyl)-pyridin-3-yl]-N-(2-dimethylamino-ethyl)-benzamide]
< 1000 nM | CN(C)CCNC(=O)c1cccc(-c2cnc(N)c(-c3ccc(F)c(Cl)c3)c2)c1 [Y-039, 3-[6-Amino-5-(3-chloro-4-fluoro-phenyl)-pyridin-3-yl]-N-(2-dimethylamino-ethyl)-benzamide]
< 1000 nM | CN(C)CCNC(=O)c1cccc(-c2cnc(N)c(-c3cccc(Cl)c3)c2)c1 [Y-040, 3-[6-Amino-5-(3-chloro-phenyl)-pyridin-3-yl]-N-(2-dimethylamino-ethyl)-benzamide]
< 1000 nM | CN(C)CCNC(=O)c1cccc(-c2cnc(N)c(-c3cccc(C#N)c3)c2)c1 [Y-041, 3-[6-Amino-5-(3-cyano-phenyl)-pyridin-3-yl]-N-(2-dimethylamino-ethyl)-benzamide]

From US20110098325A1, “PYRIDINE BENZAMIDES AND PYRAZINE BENZAMIDES USED AS PKD INHIBITORS” (CANCER RESEARCH TECHNOLOGY LIMITED, priority 2006, published 2011)
